How the values were obtained:
[1] = system: unanaesthetized, hypertension-suffering rat; assay: Antihypertensive activity (systolic arterial pressure), oral; assay type: in vivo; conditions: 60 mg/kg, hypertensive rat, 3 hours
Experimental: (2) The antihypertensive activity was measured on unanaesthetized, hypertension-suffering rat. The tested substances were orally given at a rate of 60 mg/kg. The systolic arterial pressure was measured every 30 minutes for 2 hours before and for 3 hours after the tested product was given. Results are expressed as follows: […]
O: no reduction of arterial pressure.
+: reduction lower than 10 mm Hg.
++: reduction of 10 to 20 mm Hg.
+++: reduction higher than 20 mm Hg.

[2] = system: femoral artery; assay: Vasodilator activity, femoral artery (technique of perfused paw); assay type: in vivo; design: key: O: no action; +: slight activity; ++: effect equal to half the effect of papaverine; +++: effect equal to that of papaverine; ++++: effect higher than that of papaverine; conditions: intra-arterial, 30 mg/kg, anaesthetized dog, vs papaverine at same dose
Experimental: (3) The vasodilator activity was measured at the level of femoral artery on anaesthetized dog (technique of perfused paw). The tested substances were given intra-arterially at the rate of 30 mg/kg. Results are expressed with respect to papaverine tested at the same dose.
++: effect equal to half the effect of papaverine.
+++: effect equal to that of papaverine.
++++: effect higher than that of papaverine.

[3] = system: guinea-pig ileum (histamine contractions); assay: Antispasmodic activity in vitro, contractions caused by histamine; conditions: added 15 minutes before spasm-producing agent
Experimental: (§1) (4) The antispasmodic activity was measured in vitro, on guinea-pig ileum, the contractions of which were caused by histammne (Hist.), acetylcholine (Achol) or barium chloride (BaCl2). The tested products were added to perfusion bath 15 minutes before the spasm-producing agents.
(§2) The dose is given in micograms (μg) per ml of bath causing complete spasm inhibition.

[4] = system: guinea-pig ileum (acetylcholine contractions); assay: Antispasmodic activity in vitro, contractions caused by acetylcholine; conditions: added 15 minutes before spasm-producing agent
Experimental: as §1, §2

[5] = Acute toxicity, oral, LD50 (Litchfield and Wilcoxon); conditions: mouse, in vivo, fasted male mice, confidence limits p=95% in brackets
Experimental: (1) The acute toxicity was determined on fasted male mice. The tested substances were orally administered and LD50 values (lethal dose for 50% of animals) were calculated according to the method of Litchfield and Wilcoxon (J. Pharmacol. exp. Ther. 96, 94-113, 1949). These LD50 values are given in mg/kg and also, when possible, with their confidence limits for p=95%.

Molecule	ANTIHYPERTENSIVE ACTIVITY [1]	VASODILATOR ACTIVITY [2]	ANTISPASMODIC ACTIVITY HIST. (dose causing complete spasm inhibition) [3] [μg per ml]	ANTISPASMODIC ACTIVITY ACHOL (dose causing complete spasm inhibition) [4] [μg per ml]	LD50 [5] [mg/kg]
1-(2,3-dihydro-5-benzo[b]thienyl)-2-(4-phenylbutylamino)-1-propanol [Example 18]	+++ (reduction higher than 20 mm Hg)	++++	0.8	0.33	–
1-(2-methyl-2,3-dihydro-5-benzo[b]furanyl-2-[4-(p-chlorophenyl)butylamino]- 1-propanol [No 65]	+++ (reduction higher than 20 mm Hg)	++++	1.7	1.7	–
C[C@H](NCCCCc1ccccc1)[C@@H](O)c1ccc2c(c1)CCS2 (relative stereo) [No 98]	+ (reduction lower than 10 mm Hg)	–	–	–	–
CC(=O)O[C@@H](c1ccc2c(c1)CCS2)[C@H](C)NCCCCc1ccccc1 (relative stereo) [No 113]	+ (reduction lower than 10 mm Hg)	–	–	–	–
Cc1ccc(CCCCNC(C)C(O)c2ccc3c(c2)CCCCS3)cc1 (centres unmarked) [No 30]	+++ (reduction higher than 20 mm Hg)	+++	1.7	0.8	–
CC(CCCc1ccccc1)NC(C)C(O)c1ccc2c(c1)CCCS2 (centres unmarked) [No 42]	+++ (reduction higher than 20 mm Hg)	+++	1.7	1.7	–
C#CC(C)(C)NC(C)C(O)c1ccc2c(c1)CCCS2 (centres unmarked) [No 44]	+++ (reduction higher than 20 mm Hg)	++	16.7	8.3	–
CC1Cc2cc(C(O)C(C)NCCCOc3ccccc3)ccc2S1 (centres unmarked) [No 64]	+++ (reduction higher than 20 mm Hg)	+++	1.7	1.7	–
CC1Cc2cc(C(O)C(C)NCCCc3ccccc3)ccc2S1 (centres unmarked) [No 67]	+++ (reduction higher than 20 mm Hg)	+++	1.7	1.7	–
CC1Cc2cc(C(O)C(C)NCCCc3ccccc3)ccc2O1 (centres unmarked) [No 69]	+++ (reduction higher than 20 mm Hg)	++	8.3	16.7	–
Cc1ccc(CCNC(C)C(O)c2ccc3c(c2)CC(C)S3)cc1 (centres unmarked) [No 71]	+++ (reduction higher than 20 mm Hg)	+++	0.8	0.8	–
CCCCOCCCNC(C)C(O)c1ccc2c(c1)CC(C)O2 (centres unmarked) [No 74]	+ (reduction lower than 10 mm Hg)	++	8.3	8.3	–
COCCOCCCNC(C)C(O)c1ccc2c(c1)CCCS2 (centres unmarked) [No 81]	+++ (reduction higher than 20 mm Hg)	++	16.7	16.7	–
CC(NCCOc1ccc(C#N)cc1)C(O)c1ccc2c(c1)CCS2 (centres unmarked) [No 85]	+++ (reduction higher than 20 mm Hg)	+++	8.3	16.7	–
CC(=O)Nc1ccc(OCCNC(C)C(O)c2ccc3c(c2)CCS3)cc1 (centres unmarked) [No 86]	–	+++	1.7	16.7	1420
CC(NCCOc1ccc2ccccc2c1)C(O)c1ccc2c(c1)CCCS2 (centres unmarked) [No 88]	–	+++	1.7	1.7	> 4000
Cc1ccc(CCCCNC(C)C(O)c2ccc3c(c2)CC(C)O3)cc1 (centres unmarked) [No 90]	+++ (reduction higher than 20 mm Hg)	++++	0.8	1.7	–
CCCCCCCCNC(C)C(O)c1ccc2c(c1)SCCS2 (centres unmarked) [No 101]	++ (reduction of 10 to 20 mm Hg)	+++	0.8	0.8	–
CC(NCCOc1ccc(C(C)(C)C)cc1)C(O)c1ccc2c(c1)CCCS2 (centres unmarked) [No 107]	–	+++	0.8	0.8	> 4000
CC(C(O)c1ccc2c(c1)CCCS2)N1CCOC(c2ccccc2)C1C (centres unmarked) [No 110]	+ (reduction lower than 10 mm Hg)	0	0.8	3.3	–
CC(=O)OC(c1ccc2c(c1)CCS2)C(C)NCCCCc1ccccc1 (centres unmarked) [No 112]	+++ (reduction higher than 20 mm Hg)	+++	0.3	3.3	–
COC(=O)c1ccc(OCCNC(C)C(O)c2ccc3c(c2)CCCS3)cc1 (centres unmarked) [No 114]	–	+++	0.8	3.3	> 2000
CCCCCCCCNC(C)C(OC(=O)C(C)C)c1ccc2c(c1)CCCS2 (centres unmarked) [No 139]	+++ (reduction higher than 20 mm Hg)	–	–	–	–
CCCCCCCCNC(C)C(O)c1ccc2c(c1)CCCC2 (centres unmarked) [No 170]	–	+++	1.7	0.8	~2300
CC(CCCc1ccccc1)NC(C)C(O)c1ccc2c(c1)CCC2 (centres unmarked) [No 173]	–	++	0.8	0.8	2600
CC(NCCOc1ccc(C(C)(C)C)cc1)C(O)c1ccc2c(c1)CCC2 (centres unmarked) [No 176]	–	+++	0.17	0.8	> 4000
CC(C(O)c1ccc2c(c1)CCC2)N1CCOC(c2ccccc2)C1C (centres unmarked) [No 177]	++ (reduction of 10 to 20 mm Hg)	–	1.7	1.7	–

Source: patent US4638070A, “Heterocyclic amino-alcohol derivatives” (Continental Pharma, priority 1980, dated 1987)
